Test results reported in PubChem BioAssay (NCI).
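Exposure lasted 48 hours, with cells grown in 96-well plates and compounds tested at five concentrations. At the GI50, growth is halved. TGI denotes the concentration required for complete inhibition of growth.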

Key:
Test in all cases: DTP human tumour cell line panel, 48 h
[1] = system: A549 NSCLC
[2] = system: DU-145 prostate
[3] = system: HL-60(TB) leukemia
[4] = system: HOP-62 NSCLC
[5] = system: HS 578T breast
[6] = system: NCI-H23 lung
[7] = system: NCI-H522 lung
[8] = system: SF-539 CNS
[9] = system: SNB-19 CNS
[10] = system: SNB-75 CNS

Compound	GI50 [1] [µM]	TGI [1] [µM]	GI50 [2] [µM]	TGI [2] [µM]	GI50 [3] [µM]	TGI [3] [µM]	GI50 [4] [µM]	TGI [4] [µM]	GI50 [5] [µM]	TGI [5] [µM]	GI50 [6] [µM]	TGI [6] [µM]	GI50 [7] [µM]	TGI [7] [µM]	GI50 [8] [µM]	TGI [8] [µM]	GI50 [9] [µM]	TGI [9] [µM]	TGI [10] [µM]	GI50 [10] [µM]
CCSc1nc(N)c(C#N)c(-c2ccc(OC)c(OC)c2)c1C#N	17	> 50	30.7	> 50	21.8	> 50	18.4	> 50	13.1	43.7	40.3	> 50	10.2	35.2	19	40.3	24.7	> 50		
Cc1cccc(/C=N/N=C(\N)NO)n1		> 100				> 100		> 100				> 100		> 100		> 100			80.8	
CC(C(=O)c1ccc(O)cc1)C1(O)C(=O)Nc2c(Cl)cc(Cl)cc21 (stereo not drawn)		> 100				50.2		> 100				> 100		57.8		> 100		> 100	> 100	
CCOC(=O)C1=C(Nc2cccc3ccccc23)OCC1=O		> 100						> 100				> 100		> 100		> 100		> 100	> 100	
Cc1nc2sc(C(=O)Nc3cccc(Cl)c3C)c(N)c2cc1C(O)c1ccccc1 (stereo not drawn)	0.0614	> 50.1	0.0454	8.5	0.0289	0.133	0.0497	16.1	0.0239	0.497	0.0634	12.9	0.0278	1.77	0.0253	0.0805	0.0604	29.1		
CC(C)(C)[Si](C)(C)O/N=C\c1cccc(O[Si](C)(C)C(C)(C)C)c1		37.4				36.8		38.9								46.7		36.6	31.8	
COc1ccc(C2C(C(=O)O)=C(CO)Oc3cc4c(cc32)OCO4)c(OC)c1 (stereo not drawn)		> 100				> 100		72				> 100				> 100		> 100	> 100	
O=CCC(O)C(O)C(O)CO (stereo not drawn)	> 100	> 100	> 100	> 100			> 100	> 100	> 100	> 100	> 100	> 100	> 100	> 100			> 100	> 100		
CNC(=O)NCCCCC(NC(=O)OCc1ccccc1)C(=O)OCc1ccccc1 (stereo not drawn)		> 100				32.4		29.1				67.4		28.3		38.5		> 100	41.6	
[N-]=[N+]=Nc1nnc(CCCCc2nnc(N=[N+]=[N-])o2)o1		> 100						> 100				> 100		> 100		> 100		> 100	> 100	
O=C(CC(=O)c1cccc2ccccc12)C(=O)Nc1nccs1		> 100				> 100		> 100				> 100		> 100		> 100			> 100	
CC(C)(C)CC(C)(C)c1cc2c(O)c(c1)Cc1cc(C(C)(C)CC(C)(C)C)cc(c1O)Cc1cc(C(C)(C)CC(C)(C)C)cc(c1O)Cc1cc(C(C)(C)CC(C)(C)C)cc(c1O)Cc1cc(C(C)(C)CC(C)(C)C)cc(c1O)Cc1cc(C(C)(C)CC(C)(C)C)cc(c1O)Cc1cc(C(C)(C)CC(C)(C)C)cc(c1O)Cc1cc(C(C)(C)CC(C)(C)C)cc(c1O)C2		> 100				> 100		> 100				> 100		> 100		> 100		> 100	> 100	
CC(=O)Nc1ccc(S(=O)(=O)N/N=C(\C)CN2C(=O)c3ccccc3C2=O)cc1		> 100				> 100		> 100				> 100		> 100		> 100		> 100	> 100	
C=CCC(O)c1cc(OC)ccc1OC (stereo not drawn)		> 100				> 100		> 100						> 100		> 100		> 100	> 100	
O=C1c2ccccc2-c2c1c1ccc3ccccc3c1n2-c1ccccc1	36.5	93.5	39	> 100			25.1	58.7	18	39.2	56.8	> 100	53.1	> 100	18.2	36.3	25.7	59.1	> 100	81.2
CCOC(=O)/C(=C/c1ccccc1)N(CC)CC		> 100				> 100		> 100				> 100		> 100		> 100		> 100		
Clc1ccc2c(NCCNc3nc(N4CCCCC4)nc4ccccc34)ccnc2c1	2.16	9.87	3.24	12.9			2.62	8.84	3.04	8.39	4.07	18.4	1.75	3.85	1.72	3.42	3.06	15.6	7.46	1.78
CCOc1cc2cnc3c4cc(OC)c(OC)cc4ccc3c2cc1OC		> 100				> 100		> 100				> 100		> 100		> 100		> 100	> 100	
CC(C)=CC1(C)/C(=N\O)C(C)(CC(C)C)C(=O)N1O (stereo not drawn)		> 100				> 100		> 100				> 100		> 100		> 100		> 100	> 100	
NC(CCSCCF)C(=O)O (stereo not drawn)		> 100				> 100		> 100				> 100		> 100		> 100		> 100		
CC(=O)OCc1ncccc1C(OC(C)=O)OC(C)=O		> 100				> 100		> 100				> 100		> 100		> 100		> 100	> 100	

Compound	GI50 [1] [µM]	TGI [1] [µM]	GI50 [2] [µM]	TGI [2] [µM]	GI50 [3] [µM]	TGI [3] [µM]	GI50 [4] [µM]	TGI [4] [µM]	GI50 [5] [µM]	TGI [5] [µM]	GI50 [6] [µM]	TGI [6] [µM]	GI50 [7] [µM]	TGI [7] [µM]	GI50 [8] [µM]	TGI [8] [µM]	GI50 [9] [µM]	TGI [9] [µM]	TGI [10] [µM]	GI50 [10] [µM]
COc1ccc2c3c1OC1C4(CCC5C(C2)N(CC2CC2)CCC351)OCCO4 (stereo not drawn)		> 100		> 100		> 100		> 100		> 100		> 100		> 100				> 100	> 100	
CC1=C(c2ccccc2)CON(c2ccccc2)C1		> 100				76.2		> 100				> 100		53.8		> 100		> 100		
NC(=S)N/N=C1/C(=O)N(c2ccccc2)C(=O)C1C(=O)Nc1ccccc1 (stereo not drawn)		> 100				> 100		> 100				> 100		> 100		> 100		> 100	> 100	
COc1cc2ccnc(-c3n[nH]c4cc(OC)c(OC)cc34)c2cc1OC		> 100				> 100		> 100				> 100		69.7		> 100		> 100	> 100	
COC(=O)CCC(=O)Nc1cc(C)ccc1C		> 100				> 100		> 100				> 100		> 100		> 100		> 100	> 100	
Cc1c(-c2cc(-c3ccccc3)n[nH]c2=O)c2ccccc2n1C		> 100				> 100		> 100				> 100		> 100		> 100		> 100	> 100	
C=CC(=O)OCCCS(=O)(=O)[O-].C=CC(=O)OCCCS(=O)(=O)[O-].NC1CCCCC1N.[Pt+4]	> 25	> 25			> 25	> 25					> 25	> 25	> 25	> 25	> 25	> 25	> 25	> 25	> 25	> 25
COc1cc2c(cc1OC)C(Cc1cc(Br)c(OC)c(OC)c1)=[N+](C)CC2		> 100				> 100		> 100				> 100		> 100		> 100		> 100	> 100	
CC1=CC[C@@H]2C(=O)C=CC=C[C@H]12.[C-]#[O+].[C-]#[O+].[C-]#[O+].[Fe]	> 100	> 100			> 100	> 100	> 100	> 100			> 100	> 100	9.81	> 100	> 100	> 100	> 100	> 100	> 100	43.9
COc1ccccc1NC(=O)C1=C(C)NC(C)=C(C(=O)Nc2ccccc2OC)C1c1ccc(C2C(C(=O)Nc3ccccc3OC)=C(C)NC(C)=C2C(=O)Nc2ccccc2OC)cc1		> 60.4				5.96		14				7.52		3.52		3.24		12.5	25	
Nc1ncnc2c1N=CN(Oc1ccccc1)N2		> 100										> 100				> 100			> 100	
CN(C)C(=S)/N=C(\N)N(C)C		> 100				> 100		> 100				> 100		> 100		> 100		> 100	> 100	
CC/C(=N/O)C(C)C(=O)CCC(=O)Nc1ccc(Cl)cc1 (stereo not drawn)		> 100				> 100						> 100				> 100		> 100	> 100	
OCC(O)C(OC1OC(CO)C(O)C(O)C1O)c1nn(-c2ccc(Cl)cc2)c2nc3cc(Cl)c(Cl)cc3nc12 (stereo not drawn)								> 100				> 100		> 100		> 100		> 100	> 100	
O=C(/C=C/c1ccco1)N1CCN(Cc2ccccc2)CC1		> 100				> 100		> 100				> 100		> 100		> 100		> 100	> 100	
O=C1Nc2cc(-c3ccc(O)cc3)ccc2/C1=C/c1ccc[nH]1	0.484	> 100	0.815	> 36.4	0.228		0.559	> 100			0.0859	2.81	0.258	> 20.1	0.246	1.53	1.06	> 100	8.35	2.08
COC(=O)c1ccc(N/C=C(/C#N)c2ccsc2)cc1		40.3				> 100		28.2				24.5				32.3		29.8	18.9	
CCOC(=O)CC1C(CNC(=O)NC)OC(n2cnc3c(NC(=O)Nc4ccccc4)ncnc32)C1O[Si](C)(C)C(C)(C)C (stereo not drawn)	4.18	19.2	4.97	19.4			8.96	26.4	3.6	53.6	33.3	> 100	4.36	85.7	5.19	> 100	29	> 100	> 100	4.56
CCCCCCCCCCCc1cc(=O)c2c(O)cccc2o1		> 100				> 100		> 100				> 100		> 100		> 100		> 100	> 100	
CC(C)CCCC(C)[C@H]1CCC2C3CC=C4C[C@@H](OC(=O)CC(CC(=O)[O-])C(=O)[O-])CC[C@]4(C)C3CC[C@@]21C.N.N.[Pt+4] (stereo partly drawn)	> 100	> 100			> 100	> 100									> 100	> 100	> 100	> 100	> 100	> 100
N#Cc1cc2c(=S)[nH]c(=S)[nH]c2nc1SCc1ccccc1	32.3	> 100	82.9	> 100	30.4	77.4	63.2	> 100	39.6	> 100	32	> 100	> 100	> 100	57.1	> 100	> 100	> 100		
